Results as given in US7947626B2 (priority 2006, dated 2011).

How the values were obtained:
[1] = tested on: passaged cortical stem and progenitor cell derived neural networks; format: cell-based, rat
[2] = tested on: primary cortical stem cell and progenitor cell derived neural networks; format: cell-based, rat

Compound | mean spike rate (MSR) response of the network [1] | mean spike rate (MSR) response of the network [2] | raw action potential spike activity, single channel 10 second trace [1]
cadmium chloride | responsive |  | 
N#Cc1cc2c(cc1[N+](=O)[O-])=NC(=O)C(=O)N=2 [CNQX, 6-cyano-7-nitroquinoxaline-2,3-dione] | further decrease in activity | decrease in MSR | near total blockade of action potentials
NC(CCCP(=O)(O)O)C(=O)O (racemic) [APV, DL-2-amino-5-phosphonovaleric acid] | decrease in MSR | No additional decrease in network activity | incremental effects of APV on both spike rate and burst pattern
